Assay results as given in ChEMBL document CHEMBL4308841, “Synthesis, in vitro antiproliferative activity, and kinase inhibitory effects of pyrazole-containing diarylureas and diarylamides” (Eur J Med Chem, 2018).

Key:
TK-10 = assay: Growth inhibition of human TK10 cells assessed as cell growth at 10 uM incubated for 48 hrs by sulforhodamine B assay relative to control; assay type: functional; conditions: TK-10, 48 h, read-out: Activity
LOX IMVI = assay: Growth inhibition of human LOXIMVI cells incubated for 48 hrs by sulforhodamine B assay; assay type: functional
IGROV-1 = assay: Growth inhibition of human IGROV1 cells incubated for 48 hrs by sulforhodamine B assay; assay type: functional, cell-based; conditions: IGROV-1, 48 h
NCI/ADR-RES = assay: Growth inhibition of human NCI/ADR-RES cells incubated for 48 hrs by sulforhodamine B assay; assay type: functional, cell-based
A498 = assay: Growth inhibition of human A498 cells incubated for 48 hrs by sulforhodamine B assay; assay type: functional, cell-based; conditions: A498, 48 h
DU-145 = assay: Growth inhibition of human DU145 cells incubated for 48 hrs by sulforhodamine B assay; assay type: functional, cell-based; conditions: DU-145, 48 h
MOLT-4 = assay: Growth inhibition of human MOLT4 cells assessed as cell growth at 0.01 uM incubated for 48 hrs by sulforhodamine B assay relative to control; assay type: functional; conditions: MOLT-4, 48 h, read-out: Activity
HOP-62 [1] = assay: Growth inhibition of human HOP62 cells assessed as cell growth at 0.01 uM incubated for 48 hrs by sulforhodamine B assay relative to control; assay type: functional; conditions: HOP-62, 48 h, read-out: Activity
HCT-116 = assay: Growth inhibition of human HCT116 cells assessed as cell growth at 0.01 uM incubated for 48 hrs by sulforhodamine B assay relative to control; assay type: functional; conditions: HCT-116, 48 h, read-out: Activity
ACHN = assay: Growth inhibition of human ACHN cells assessed as cell growth at 0.01 uM incubated for 48 hrs by sulforhodamine B assay relative to control; assay type: functional; conditions: read-out: Activity
HL-60(TB) = assay: Growth inhibition of human HL-60(TB) cells assessed as cell growth at 0.1 uM incubated for 48 hrs by sulforhodamine B assay relative to control; assay type: functional; conditions: HL-60, 48 h, read-out: Activity
SNB-19 = assay: Growth inhibition of human SNB19 cells assessed as cell growth at 0.1 uM incubated for 48 hrs by sulforhodamine B assay relative to control; assay type: functional; conditions: SNB-19, 48 h, read-out: Activity
SNB-75 = assay: Growth inhibition of human SNB75 cells assessed as cell growth at 0.1 uM incubated for 48 hrs by sulforhodamine B assay relative to control; assay type: functional; conditions: SNB-75, 48 h, read-out: Activity
SK-MEL-2 [2] = assay: Growth inhibition of human SK-MEL-2 cells assessed as cell growth at 0.1 uM incubated for 48 hrs by sulforhodamine B assay relative to control; assay type: functional; conditions: SK-MEL-2, 48 h, read-out: Activity
SK-OV-3 = assay: Growth inhibition of human SKOV3 cells assessed as cell growth at 0.1 uM incubated for 48 hrs by sulforhodamine B assay relative to control; assay type: functional; conditions: SK-OV-3, 48 h, read-out: Activity
SN12C = assay: Growth inhibition of human SN12C cells assessed as cell growth at 0.1 uM incubated for 48 hrs by sulforhodamine B assay relative to control; assay type: functional; conditions: read-out: Activity
BT-549 = assay: Growth inhibition of human BT549 cells assessed as cell growth at 0.1 uM incubated for 48 hrs by sulforhodamine B assay relative to control; assay type: functional; conditions: BT-549, 48 h, read-out: Activity
K562 = assay: Growth inhibition of human K562 cells assessed as cell growth at 1 uM incubated for 48 hrs by sulforhodamine B assay relative to control; assay type: functional; conditions: K562, 48 h, read-out: Activity
KM12 = assay: Growth inhibition of human KM12 cells assessed as cell growth at 1 uM incubated for 48 hrs by sulforhodamine B assay relative to control; assay type: functional; conditions: KM12, 48 h, read-out: Activity
SK-MEL-28 = assay: Growth inhibition of human SK-MEL-28 cells assessed as cell growth at 1 uM incubated for 48 hrs by sulforhodamine B assay relative to control; assay type: functional; conditions: SK-MEL-28, 48 h, read-out: Activity
UACC-62 = assay: Growth inhibition of human UACC62 cells assessed as cell growth at 1 uM incubated for 48 hrs by sulforhodamine B assay relative to control; assay type: functional; conditions: UACC-62, 48 h, read-out: Activity
RPMI-8226 = assay: Growth inhibition of human RPMI8226 cells assessed as cell growth at 100 uM incubated for 48 hrs by sulforhodamine B assay relative to control; assay type: functional; conditions: RPMI-8226, 48 h, read-out: Activity
HOP-62 [3] = assay: Growth inhibition of human HOP62 cells assessed as cell growth at 100 uM incubated for 48 hrs by sulforhodamine B assay relative to control; assay type: functional; conditions: HOP-62, 48 h, read-out: Activity
NCI-H226 = assay: Growth inhibition of human NCI-H226 cells assessed as cell growth at 100 uM incubated for 48 hrs by sulforhodamine B assay relative to control; assay type: functional; conditions: NCI-H226, 48 h, read-out: Activity
HCT-15 = assay: Growth inhibition of human HCT15 cells assessed as cell growth at 100 uM incubated for 48 hrs by sulforhodamine B assay relative to control; assay type: functional; conditions: HCT-15, 48 h, read-out: Activity
SK-MEL-2 [4] = assay: Growth inhibition of human SK-MEL-2 cells assessed as cell growth at 100 uM incubated for 48 hrs by sulforhodamine B assay relative to control; assay type: functional; conditions: SK-MEL-2, 48 h, read-out: Activity
UACC-257 = assay: Growth inhibition of human UACC257 cells assessed as cell growth at 100 uM incubated for 48 hrs by sulforhodamine B assay relative to control; assay type: functional; conditions: UACC-257, 48 h, read-out: Activity
OVCAR-3 = assay: Growth inhibition of human OVCAR3 cells assessed as cell growth at 100 uM incubated for 48 hrs by sulforhodamine B assay relative to control; assay type: functional; conditions: OVCAR-3, 48 h, read-out: Activity
OVCAR-8 = assay: Growth inhibition of human OVCAR8 cells assessed as cell growth at 100 uM incubated for 48 hrs by sulforhodamine B assay relative to control; assay type: functional; conditions: OVCAR-8, 48 h, read-out: Activity
PC-3 = assay: Growth inhibition of human PC3 cells assessed as cell growth at 100 uM incubated for 48 hrs by sulforhodamine B assay relative to control; assay type: functional; conditions: PC-3, 48 h, read-out: Activity
[5] = read-out: LC50 (the source's name)
[6] = read-out: pLC50 (the source's name) (converted)

SMILES: O=C(Nc1cccc(-n2cc(-c3ccncc3)c(-c3cc(O)cc(Cl)c3)n2)c1)c1ccc(N2CCOCC2)c(C(F)(F)F)c1
- growth at 10 µM (TK-10): 70.3%
- GI50 (LOX IMVI; read-out: GI50): 1.03 µM
- CC50 (LOX IMVI; [5]): > 100 µM
- TGI (LOX IMVI; read-out: TGI): 48.1 µM
- GI50 (LOX IMVI; read-out: pGI50 (converted)): 1.02 µM
- CC50 (LOX IMVI; [6]): > 100 µM
- TGI (LOX IMVI; read-out: pTGI (converted)): 4.57 µM
- GI50 (IGROV-1; read-out: GI50): 5.12 µM
- CC50 (IGROV-1; [5]): > 100 µM
- TGI (IGROV-1; read-out: TGI): > 100 µM
- GI50 (IGROV-1; read-out: pGI50 (converted)): 5.13 µM
- CC50 (IGROV-1; [6]): > 100 µM
- TGI (IGROV-1; read-out: pTGI (converted)): > 100 µM
- GI50 (NCI/ADR-RES; read-out: GI50): 45.9 µM
- CC50 (NCI/ADR-RES; [5]): > 100 µM
- TGI (NCI/ADR-RES; read-out: TGI): > 100 µM
- GI50 (NCI/ADR-RES; read-out: pGI50 (converted)): 4.57 µM
- CC50 (NCI/ADR-RES; [6]): > 100 µM
- TGI (NCI/ADR-RES; read-out: pTGI (converted)): > 100 µM
- GI50 (A498; read-out: GI50): 1.94 µM
- CC50 (A498; [5]): > 100 µM
- TGI (A498; read-out: TGI): 73.2 µM
- GI50 (A498; read-out: pGI50 (converted)): 19.5 µM
- CC50 (A498; [6]): > 100 µM
- TGI (A498; read-out: pTGI (converted)): 72.4 µM
- GI50 (DU-145; read-out: GI50): 5.55 µM
- CC50 (DU-145; [5]): > 100 µM
- TGI (DU-145; read-out: TGI): > 100 µM
- GI50 (DU-145; read-out: pGI50 (converted)): 5.62 µM
- CC50 (DU-145; [6]): > 100 µM
- TGI (DU-145; read-out: pTGI (converted)): > 100 µM
- growth at 0.01 µM (MOLT-4): 93%
- growth at 0.01 µM (HOP-62 [1]): 100%
- growth at 0.01 µM (HCT-116): 102%
- growth at 0.01 µM (ACHN): 100%
- growth at 0.1 µM (HL-60(TB)): 114%
- growth at 0.1 µM (SNB-19): 105%
- growth at 0.1 µM (SNB-75): 83%
- growth at 0.1 µM (SK-MEL-2 [2]): 101%
- growth at 0.1 µM (SK-OV-3): 102%
- growth at 0.1 µM (SN12C): 98%
- growth at 0.1 µM (BT-549): 97%
- growth at 1 µM (K562): 30%
- growth at 1 µM (KM12): 54%
- growth at 1 µM (SK-MEL-28): 44%
- growth at 1 µM (UACC-62): 58%
- growth at 100 µM (RPMI-8226): -32%
- growth at 100 µM (HOP-62 [3]): -7%
- growth at 100 µM (NCI-H226): 27%
- growth at 100 µM (HCT-15): -54%
- growth at 100 µM (SK-MEL-2 [4]): -30%
- growth at 100 µM (UACC-257): -27%
- growth at 100 µM (OVCAR-3): 30%
- growth at 100 µM (OVCAR-8): 17%
- growth at 100 µM (PC-3): -8%

SMILES: O=C(Nc1cccc(-n2cc(-c3ccncc3)c(-c3cc(O)cc(Cl)c3)n2)c1)Nc1ccc(Cl)c(C(F)(F)F)c1
- growth at 10 µM (TK-10): 25.9%
- GI50 (LOX IMVI; read-out: GI50): 1.97 µM
- CC50 (LOX IMVI; [5]): 95.5 µM
- TGI (LOX IMVI; read-out: TGI): 43.6 µM
- GI50 (LOX IMVI; read-out: pGI50 (converted)): 1.95 µM
- CC50 (LOX IMVI; [6]): 9.55 µM
- TGI (LOX IMVI; read-out: pTGI (converted)): 4.37 µM
- GI50 (IGROV-1; read-out: GI50): 3.81 µM
- CC50 (IGROV-1; [5]): > 100 µM
- TGI (IGROV-1; read-out: TGI): 12.6 µM
- GI50 (IGROV-1; read-out: pGI50 (converted)): 3.8 µM
- CC50 (IGROV-1; [6]): > 100 µM
- TGI (IGROV-1; read-out: pTGI (converted)): 12.6 µM
- GI50 (NCI/ADR-RES; read-out: GI50): 3.41 µM
- CC50 (NCI/ADR-RES; [5]): > 100 µM
- TGI (NCI/ADR-RES; read-out: TGI): 23.6 µM
- GI50 (NCI/ADR-RES; read-out: pGI50 (converted)): 3.39 µM
- CC50 (NCI/ADR-RES; [6]): > 100 µM
- TGI (NCI/ADR-RES; read-out: pTGI (converted)): 23.4 µM
- GI50 (A498; read-out: GI50): 3.9 µM
- CC50 (A498; [5]): 44 µM
- TGI (A498; read-out: TGI): 15.5 µM
- GI50 (A498; read-out: pGI50 (converted)): 3.89 µM
- CC50 (A498; [6]): 44.7 µM
- TGI (A498; read-out: pTGI (converted)): 15.5 µM
- GI50 (DU-145; read-out: GI50): 3.77 µM
- CC50 (DU-145; [5]): 55.8 µM
- TGI (DU-145; read-out: TGI): 11.7 µM
- GI50 (DU-145; read-out: pGI50 (converted)): 3.31 µM
- CC50 (DU-145; [6]): 56.2 µM
- TGI (DU-145; read-out: pTGI (converted)): 11.7 µM
- growth at 0.01 µM (MOLT-4): 100%
- growth at 0.01 µM (HOP-62 [1]): 99%
- growth at 0.01 µM (HCT-116): 104%
- growth at 0.01 µM (ACHN): 104%
- growth at 0.1 µM (HL-60(TB)): 89%
- growth at 0.1 µM (SNB-19): 95%
- growth at 0.1 µM (SNB-75): 88%
- growth at 0.1 µM (SK-MEL-2 [2]): 94%
- growth at 0.1 µM (SK-OV-3): 104%
- growth at 0.1 µM (SN12C): 100%
- growth at 0.1 µM (BT-549): 95%
- growth at 1 µM (K562): 55%
- growth at 1 µM (KM12): 56%
- growth at 1 µM (SK-MEL-28): 81%
- growth at 1 µM (UACC-62): 99%
- growth at 100 µM (RPMI-8226): -30%
- growth at 100 µM (HOP-62 [3]): -12%
- growth at 100 µM (NCI-H226): -38%
- growth at 100 µM (HCT-15): -57%
- growth at 100 µM (SK-MEL-2 [4]): -88%
- growth at 100 µM (UACC-257): -96%
- growth at 100 µM (OVCAR-3): -1%
- growth at 100 µM (OVCAR-8): -52%
- growth at 100 µM (PC-3): -83%
